In patent US11091511B2, “Panaxdiol-type ginsenoside derivative, preparation method therefor and use thereof” (ARMY MEDICAL UNIVERSITY, priority 2016, dated 2021):
Marks after values point to notes of the source that are not given here.

Assays:
RAW264.7 cells = assay: RAW264.7 cell survival rate by CCK8 method; format: cell-based, mouse; conditions: compound 10 prnol/L, 0.1% DMSO, CCK8, x ± s, n = 3, normal saline control = 1
Experimental: In order to further verify the toxicities of the compounds prepared in Examples 1-30 of the present invention, the mouse macrophage cell line RAW264.7 was cultured, and the compounds prepared in Examples 1-30 of the invention were prepared to a concentration of […] using culture medium, wherein the solvent was normal saline, the co-solvent was dimethyl sulfoxide (DMSO, the final concentratoin was 0.1%), and a 0.1% DMSO saline control group was provided. The cell survival rate was determined by CCK8 method. The data were expressed as x±s. SPSS 10.0 line single-factor analysis of variance was performed among groups. The difference was significant when p<0.05.

apoE−/− mice [1] = assay: Atherosclerotic plaque area to total aortic area in apoE-/- mice on high-fat diet (Sudan IV staining); format: in vivo, mouse; conditions: intragastric 15 weeks, compounds 30 mg/(kg·d), simvastatin 10 mg/(kg·d), x ± s, n = 5, saline control 14.67 ± 3.58
Description: The effects of the compounds prepared in Examples 1-30 of the present invention on the percentages of areas of atherosclerotic plaque formation to the area of the entire artery in apoE−/− mice with a high-fat diet and the levels of low-density lipoprotein cholesterol and the levels of high-density lipoprotein, the specific steps are as follows: 1. animals: 160 ten-week-old, healthy and clean-grade apoE−/− mice (purchased from Peking University Experimental Animal Center), males, weight: 22-25 g, were housed in separate cages in a sterile laminar feeding room and fed freely. The mice were fed by a high-fat diet (conventional feed+0.15% cholesterol+21% lard) for 25 weeks, the room temperature was kept at 24° C., relative humidity: 50%, illumination time 7:30-19:30. 2. Grouping, administration method: after 10 weeks of feeding, the animals were divided into the following 32 groups (n=5) by weight in a balanced and random manner, and killed 15 weeks after administration. Normal saline control group: normal saline, intragastric administration. Positive control group: simvastatin 10 mg/(kg·d), intragastric administration. The compound groups prepared in Examples 1-30 of the present invention (30 groups in total): each was intragastric administered 30 mg/(kg·d). (1) Analysis of the area of atherosclerotic plaque and its percentage to total area: after the animals were killed, the aortas were separated, from the roots of the aortas to the terminal bifurcations of the abdominal aortas. After formalin fixation, the aortas were stained with Sudan IV, the red stained parts were the areas of atherosclerotic lesions. The percentage of the area of the lesion area to total area was calculated using Image Pro Plus 5.0 software. Data were expressed as x±s, and SPSS 10.0 line single-factor analysis of variance was performed among groups, a significant difference was indicated when p<0.05.

apoE−/− mice [2] = assay: Blood lipids (LDL-C, HDL-C) in apoE-/- mice on high-fat diet; format: in vivo, mouse; conditions: apoE-/- mice serum, intragastric 15 weeks, compounds 30 mg/(kg·d), simvastatin 10 mg/(kg·d), x ± s; for HDL-C: n = 5, saline control 3.74 ± 0.62; for LDL-C: n = 5, saline control 7.33 ± 1.03
Description: The effects of the compounds prepared in Examples 1-30 of the present invention on the percentages of areas of atherosclerotic plaque formation to the area of the entire artery in apoE−/− mice with a high-fat diet and the levels of low-density lipoprotein cholesterol and the levels of high-density lipoprotein, the specific steps are as follows:
1. animals: 160 ten-week-old, healthy and clean-grade apoE−/− mice (purchased from Peking University Experimental Animal Center), males, weight: 22-25 g, were housed in separate cages in a sterile laminar feeding room and fed freely. The mice were fed by a high-fat diet (conventional feed+0.15% cholesterol+21% lard) for 25 weeks, the room temperature was kept at 24° C., relative humidity: 50%, illumination time 7:30-19:30.
2. Grouping, administration method:
after 10 weeks of feeding, the animals were divided into the following 32 groups (n=5) by weight in a balanced and random manner, and killed 15 weeks after administration.
Normal saline control group: normal saline, intragastric administration.
Positive control group: simvastatin 10 mg/(kg·d), intragastric administration.
The compound groups prepared in Examples 1-30 of the present invention (30 groups in total): each was intragastric administered 30 mg/(kg·d).
(2) Determination of the levels of total cholesterol (TC), low-density cholesterol lipoprotein (LDL-C) and high-density lipoprotein cholesterol (HDL-C): using ROCHE 7060 automatic biochemical analyzer for the determination.
Data were expressed as x±s, and SPSS 10.0 line single-factor analysis of variance was performed among groups, a significant difference was indicated when p<0.05.

TNF-α = assay: Local TNF-α level in the arteries of apoE-/- mice (Millipore liquid phase chip); format: in vivo, mouse; conditions: high-fat diet, intragastric 15 weeks, compounds 30 mg/(kg·d), simvastatin 10 mg/(kg·d), x ± s, n = 5, saline control 25.58 ± 6.44
Description: The effects of the compounds prepared in Examples 1-30 of the present invention on the percentages of areas of atherosclerotic plaque formation to the area of the entire artery in apoE−/− mice with a high-fat diet and the levels of low-density lipoprotein cholesterol and the levels of high-density lipoprotein, the specific steps are as follows: 1. animals: 160 ten-week-old, healthy and clean-grade apoE−/− mice (purchased from Peking University Experimental Animal Center), males, weight: 22-25 g, were housed in separate cages in a sterile laminar feeding room and fed freely. The mice were fed by a high-fat diet (conventional feed+0.15% cholesterol+21% lard) for 25 weeks, the room temperature was kept at 24° C., relative humidity: 50%, illumination time 7:30-19:30. 2. Grouping, administration method: after 10 weeks of feeding, the animals were divided into the following 32 groups (n=5) by weight in a balanced and random manner, and killed 15 weeks after administration. Normal saline control group: normal saline, intragastric administration. Positive control group: simvastatin 10 mg/(kg·d), intragastric administration. The compound groups prepared in Examples 1-30 of the present invention (30 groups in total): each was intragastric administered 30 mg/(kg·d). (3) Determination of TNF-α level: Millipore liquid phase chip method was used for the determination (Mcytomag-70K-3, Mouse Cytokine/Chemokine Magnetic Bead Panel). Data were expressed as x±s, and SPSS 10.0 line single-factor analysis of variance was performed among groups, a significant difference was indicated when p<0.05.

[3] = tested on: RAW264.7 cell-derived foam cells; assay: Formation of RAW264.7 cell-derived foam cells (ox-LDL, oil red O, absorbance 490 nm); format: cell-based, mouse; conditions: 48 hours, model group = 100%, x ± s, n = 3
Experimental: The effects of the compounds prepared in Examples 1-30 of the present invention on the formation of RAW264.7 cell-derived foam cells, the specific steps are as follows:
1. Cell culture and foam cell model establishment:
RAW264.7 cells were cultured in DMEM culture medium with high glucose level (GIBCO) to a cell concentration of 1×10^6, planted in a 6-well plate, and 60 mg/L of ox-LDL (oxidized modified low-density lipoprotein, Peking Union Medical College) was added, foam cells were obtained after 48 hours of incubation.
2. Grouping and index detection:
The obtained foam cells were divided into 61 groups, 3 well plates were included in one group. After the treatment by adding the drugs (100 μL/well) for 48 hours, the medium was discarded, and after oil red 0 staining, the excess amount of oil red 0 was washed away. The cells were dissolved in isopropanol and the absorbance values were measured at 490 nm. The OD value of the model group was 100%, and the OD value of each group corrected by the number of cells was compared with the model group to obtain the ratio of intracellular lipid content. The larger the value, the more intracellular lipids, the higher the degree of formation of foam cells.
Normal saline control group: normal saline
Low dose groups of the compounds prepared in Examples 1-30 of the present invention:
10 μmol/L (solvents were normal saline).
High dose groups of compounds prepared in Examples 1-30 of the present invention: 30 μmol/L (solvents were normal saline).
Data were expressed as x±s, and SPSS 10.0 line single-factor analysis of variance was performed amoung groups, a significant difference was indicated when p<0.05.

Structure (SMILES)	Cell Survival Rate (RAW264.7 cells)	Plaque area/total aorta area (%) (apoE−/− mice [1])	HDL-C (apoE−/− mice [2])	LDL-C (apoE−/− mice [2])	TNF-α level (ng/g) (TNF-α)	Foam cell formation (%) ([3]; dose 10 μmol/L)	Foam cell formation (%) ([3]; dose 30 μmol/L)
COC(=O)CC[C@H](NCCC[C@](C)(O[C@H]1O[C@H](COC(C)=O)[C@@H](OC(C)=O)[C@H](OC(C)=O)[C@H]1OC(C)=O)C1CC[C@]2(C)[C@@H]1C(OC(C)=O)CC1[C@@]3(C)CC[C@H](OC(C)=O)C(C)(C)C3CC[C@]12C)C(=O)OC (stereo partly shown) [Compound 8]	0.82 ± 0.06	9.31 ± 3.58 ^a %	5.63 ± 0.84 ^a mmol/L	4.34 ± 1.19 ^a mmol/L	12.67 ± 3.11 ^a ng/g	73 ± 16 ^a %	51 ± 17 ^a %
COC(=O)CNCCC[C@](C)(O[C@H]1O[C@H](COC(C)=O)[C@@H](OC(C)=O)[C@H](OC(C)=O)[C@H]1OC(C)=O)C1CC[C@]2(C)[C@@H]1C(OC(C)=O)CC1[C@@]3(C)CC[C@H](OC(C)=O)C(C)(C)C3CC[C@]12C (stereo partly shown) [Compound 9]	0.85 ± 0.07	10.55 ± 2.19 ^a %	4.41 ± 0.67 ^a mmol/L	6.84 ± 0.85 mmol/L	12.85 ± 4.17 ^a ng/g	79 ± 23%	65 ± 17 ^a %
CCOC(=O)CCNCCC[C@](C)(O[C@H]1O[C@H](COC(C)=O)[C@@H](OC(C)=O)[C@H](OC(C)=O)[C@H]1OC(C)=O)C1CC[C@]2(C)[C@@H]1C(OC(C)=O)CC1[C@@]3(C)CC[C@H](OC(C)=O)C(C)(C)C3CC[C@]12C (stereo partly shown) [Compound 10]	0.82 ± 0.13	8.52 ± 3.25 ^a %	4.50 ± 0.94 ^a mmol/L	6.54 ± 1.06 mmol/L	11.66 ± 2.65 ^a ng/g	69 ± 18 ^a %	45 ± 21 ^a %
CCOC(=O)C(NCCC[C@](C)(O[C@H]1O[C@H](COC(C)=O)[C@@H](OC(C)=O)[C@H](OC(C)=O)[C@H]1OC(C)=O)C1CC[C@]2(C)[C@@H]1C(OC(C)=O)CC1[C@@]3(C)CC[C@H](OC(C)=O)C(C)(C)C3CC[C@]12C)C(=O)OCC (stereo partly shown) [Compound 11]	0.84 ± 0.12	9.68 ± 3.52 ^a %	4.93 ± 0.58 ^a mmol/L	6.59 ± 1.56 mmol/L	12.33 ± 5.81 ^a ng/g	72 ± 14 ^a %	65 ± 15 ^a %
